Reference: patent US6114310A, “Efflux pump inhibitors” (priority 1998, dated 2000)

System: Pseudomonas aeruginosa PAM1001
Assay: microbe, parasite or virus in culture
Format: cell-based
Protocol: The activity of efflux pump inhibitors (EPI) in combination with fluoroquinolones, such as levofloxacin, is assessed by the checkerboard assay (Antimicrobial Combinations. In Antibiotics in Laboratory Medicine, Ed. Victor Lorian, M. D., Fourth edition, 1996, pp 333-338) using broth microdilution method performed as recommended by the NCCLS (National Committee for Clinical Laboratory Standards (NCCLS). 1997. Methods for Dilution of Antimicrobial Susceptibility Tests for Bacteria That Grow Aerobically--Fourth Edition; Approved Standard. NCCLS Document M7-A4, Vol 17 No.2). The test organism used is Pseudomonas aeruginosa PAM1001.
In this assay, multiple dilutions of two drugs, namely the EPI and levofloxacin, are being tested, alone and in combination, at concentrations equal to, above and below their respective minimal inhibitory concentrations (MICs).
Stock solutions are further diluted, according to the needs of a particular assay, in Mueller Hinton Broth (MHB). Stock solution can be stored at -80° C. Quinolones are solubilized according to the instructions of the manufacturers, at a concentration of 1 mg/ml. They are then further diluted in MHB. Stock solution can be stored at -80° C.
The checkerboard assay is performed in microtiter plates. Levofloxacin is diluted in the x axis, each column containing a single concentration of levofloxacin. The EPI is diluted in the y axis, each row containing an equal concentration of EPI. The result of these manipulations is that each well of the microtiter plate contains a unique combination of concentrations of the two agents. Each EPI are tested independently.
The assay is performed in MHB with a final bacterial inoculum of 5×10^5 CFU/ml (from an early-log phase culture). Microtiter plates are incubated during 20 h at 35° C. and are read using a microtiterplate reader (Molecular Devices) at 650 nm as well as visual observation using a microtiterplate reading mirror.

[1] = Table 1, EPI Conc. μg/ml (number not given; column between 10 and 40 μg/ml)
[2] = Table 2, EPI Conc. μg/ml (number not given; column between 10 and 40 μg/ml)
[3] = Table 3, EPI Conc. μg/ml (number not given; column between 10 and 40 μg/ml)
[4] = Table 4, EPI Conc. μg/ml (number not given; column between 10 and 40 μg/ml)

Compound	Levofloxacin MIC Against P. aeruginosa PAM1001 in Presence of Efflux Pump Inhibitor (EPI), Minimum Inhibitory Concentration (Table 1, EPI Conc. 0 μg/ml) [µg/mL]	Levofloxacin MIC Against P. aeruginosa PAM1001 in Presence of Efflux Pump Inhibitor (EPI), Minimum Inhibitory Concentration (Table 1, EPI Conc. 0.625 μg/ml) [µg/mL]	Levofloxacin MIC Against P. aeruginosa PAM1001 in Presence of Efflux Pump Inhibitor (EPI), Minimum Inhibitory Concentration (Table 1, EPI Conc. 5 μg/ml) [µg/mL]	Levofloxacin MIC Against P. aeruginosa PAM1001 in Presence of Efflux Pump Inhibitor (EPI), Minimum Inhibitory Concentration (Table 1, EPI Conc. 10 μg/ml) [µg/mL]	Levofloxacin MIC Against P. aeruginosa PAM1001 in Presence of Efflux Pump Inhibitor (EPI), Minimum Inhibitory Concentration (Table 1, EPI Conc. 40 μg/ml) [µg/mL]	Levofloxacin MIC Against P. aeruginosa PAM1001 in Presence of Efflux Pump Inhibitor (EPI), Minimum Inhibitory Concentration [1] [µg/mL]	Levofloxacin MIC Against P. aeruginosa PAM1001 in Presence of Efflux Pump Inhibitor (EPI), Minimum Inhibitory Concentration (Table 2, EPI Conc. 0 μg/ml) [µg/mL]	Levofloxacin MIC Against P. aeruginosa PAM1001 in Presence of Efflux Pump Inhibitor (EPI), Minimum Inhibitory Concentration (Table 2, EPI Conc. 0.625 μg/ml) [µg/mL]	Levofloxacin MIC Against P. aeruginosa PAM1001 in Presence of Efflux Pump Inhibitor (EPI), Minimum Inhibitory Concentration (Table 2, EPI Conc. 5 μg/ml) [µg/mL]	Levofloxacin MIC Against P. aeruginosa PAM1001 in Presence of Efflux Pump Inhibitor (EPI), Minimum Inhibitory Concentration (Table 2, EPI Conc. 40 μg/ml) [µg/mL]	Levofloxacin MIC Against P. aeruginosa PAM1001 in Presence of Efflux Pump Inhibitor (EPI), Minimum Inhibitory Concentration [2] [µg/mL]	Levofloxacin MIC Against P. aeruginosa PAM1001 in Presence of Efflux Pump Inhibitor (EPI), Minimum Inhibitory Concentration (Table 3, EPI Conc. 0 μg/ml) [µg/mL]	Levofloxacin MIC Against P. aeruginosa PAM1001 in Presence of Efflux Pump Inhibitor (EPI), Minimum Inhibitory Concentration (Table 3, EPI Conc. 0.625 μg/ml) [µg/mL]	Levofloxacin MIC Against P. aeruginosa PAM1001 in Presence of Efflux Pump Inhibitor (EPI), Minimum Inhibitory Concentration (Table 3, EPI Conc. 5 μg/ml) [µg/mL]	Levofloxacin MIC Against P. aeruginosa PAM1001 in Presence of Efflux Pump Inhibitor (EPI), Minimum Inhibitory Concentration (Table 3, EPI Conc. 10 μg/ml) [µg/mL]	Levofloxacin MIC Against P. aeruginosa PAM1001 in Presence of Efflux Pump Inhibitor (EPI), Minimum Inhibitory Concentration [3] [µg/mL]	Levofloxacin MIC Against P. aeruginosa PAM1001 in Presence of Efflux Pump Inhibitor (EPI), Minimum Inhibitory Concentration (Table 4, EPI Conc. 0 μg/ml) [µg/mL]	Levofloxacin MIC Against P. aeruginosa PAM1001 in Presence of Efflux Pump Inhibitor (EPI), Minimum Inhibitory Concentration (Table 4, EPI Conc. 0.625 μg/ml) [µg/mL]	Levofloxacin MIC Against P. aeruginosa PAM1001 in Presence of Efflux Pump Inhibitor (EPI), Minimum Inhibitory Concentration (Table 4, EPI Conc. 5 μg/ml) [µg/mL]	Levofloxacin MIC Against P. aeruginosa PAM1001 in Presence of Efflux Pump Inhibitor (EPI), Minimum Inhibitory Concentration (Table 4, EPI Conc. 40 μg/ml) [µg/mL]	also measured
NCCCC(N)C(=O)N(CCCc1ccccc1)CCC(=O)Nc1ccc2ccccc2c1 (stereo not drawn) [Compound 21 (Table 3), Omithyl-β-(N-phenylpropyl)alanine 2-naphthylamide]	4	4	1	1	0.25	0.50	4	4	2	0.03	0.03	4	4	0.03	0.03	0.06	4	4	0.50	0.015	Levofloxacin MIC Against P. aeruginosa PAM1001 in Presence of Efflux Pump Inhibitor (EPI), Minimum Inhibitory Concentration (Table 2, EPI Conc. […]): 4 µg/mL; Levofloxacin MIC Against P. aeruginosa PAM1001 in Presence of Efflux Pump Inhibitor (EPI), Minimum Inhibitory Concentration (Table 3, EPI Conc. […]): 2 µg/mL; Levofloxacin MIC Against P. aeruginosa PAM1001 in Presence of Efflux Pump Inhibitor (EPI), Minimum Inhibitory Concentration (Table 4, EPI Conc. […]): 4 µg/mL; Levofloxacin MIC Against P. aeruginosa PAM1001 in Presence of Efflux Pump Inhibitor (EPI), Minimum Inhibitory Concentration [4]: 0.015 µg/mL
D-Lysyl-β-N-(Ethylthioethyl)alanine 2-Naphthylamide Trifluoroacetate [Example 26]	4	4	1	0.125	0.06	0.125	4	4	2	0.06	0.125	4	4	0.06	0.015	0.03	4	4	1	0.03	Levofloxacin MIC Against P. aeruginosa PAM1001 in Presence of Efflux Pump Inhibitor (EPI), Minimum Inhibitory Concentration (Table 2, EPI Conc. 10 μg/ml): 0.125 µg/mL; Levofloxacin MIC Against P. aeruginosa PAM1001 in Presence of Efflux Pump Inhibitor (EPI), Minimum Inhibitory Concentration (Table 2, EPI Conc. […]): 4 µg/mL; Levofloxacin MIC Against P. aeruginosa PAM1001 in Presence of Efflux Pump Inhibitor (EPI), Minimum Inhibitory Concentration (Table 4, EPI Conc. 10 μg/ml): 0.25 µg/mL; Levofloxacin MIC Against P. aeruginosa PAM1001 in Presence of Efflux Pump Inhibitor (EPI), Minimum Inhibitory Concentration (Table 4, EPI Conc. […]): 4 µg/mL; Levofloxacin MIC Against P. aeruginosa PAM1001 in Presence of Efflux Pump Inhibitor (EPI), Minimum Inhibitory Concentration [4]: 0.125 µg/mL
D-Ornithyl-β-[N-(ethylthioethyl)]alanine 2-naphthylamide [Compound 42 (Table 3)]	4	4	4	1	0.008	0.06	4	4	0.25	0.06	0.03	4	4	2	0.25	0.125	4	4	2	0.03	Levofloxacin MIC Against P. aeruginosa PAM1001 in Presence of Efflux Pump Inhibitor (EPI), Minimum Inhibitory Concentration (Table 1, EPI Conc. […]): 4 µg/mL; Levofloxacin MIC Against P. aeruginosa PAM1001 in Presence of Efflux Pump Inhibitor (EPI), Minimum Inhibitory Concentration (Table 2, EPI Conc. 10 μg/ml): 0.03 µg/mL; Levofloxacin MIC Against P. aeruginosa PAM1001 in Presence of Efflux Pump Inhibitor (EPI), Minimum Inhibitory Concentration (Table 3, EPI Conc. 40 μg/ml): 0.125 µg/mL; Levofloxacin MIC Against P. aeruginosa PAM1001 in Presence of Efflux Pump Inhibitor (EPI), Minimum Inhibitory Concentration (Table 3, EPI Conc. […]): 4 µg/mL; Levofloxacin MIC Against P. aeruginosa PAM1001 in Presence of Efflux Pump Inhibitor (EPI), Minimum Inhibitory Concentration (Table 4, EPI Conc. 10 μg/ml): 1 µg/mL; Levofloxacin MIC Against P. aeruginosa PAM1001 in Presence of Efflux Pump Inhibitor (EPI), Minimum Inhibitory Concentration (Table 4, EPI Conc. […]): 4 µg/mL; Levofloxacin MIC Against P. aeruginosa PAM1001 in Presence of Efflux Pump Inhibitor (EPI), Minimum Inhibitory Concentration [4]: 0.125 µg/mL
